Laboratory results from patent US8986758B2, “Method for extracting a traditional herbal medicine component using a polished-rice steaming method” (Amorepacific Corporation, priority 2009, dated 2015).

How the values were obtained:
[1] = tested on: C57BL/6 mouse-derived pigment cells (Mel-Ab cells); assay: Effect of inhibiting melanin production using mouse pigment cells (Dooley's method); type: cell-based; conditions: 72 h, each sample at 10 ppm, Mel-Ab cells cultured 3 days, absorbance at 400 nm
Protocol: C57BL/6 mouse-derived pigment cells (Mel-Ab cells) (Dooley, T. P. et al., Skin pharmacol, 7, pp. 188-200) are cultured in a DMEM ([…]), to which 10% fetal bovine serum, 100 nM 12-O-tetradecanoylphorbol-13-acetate and 1 nM cholera toxin are added, at 37° C. under 5% CO2. The cultured Mel-Ab cells are released by using 0.25% trypsin-EDTA and incubated on a 24-well plate at a concentration of 10^5 cells/well. From the next day, each test sample is added to culture the cells continuously for 3 days.
The test samples used herein include hydroquinone, the extract of traditional herbal medicine of Comparative Example 1 and the extract of traditional herbal medicine obtained by polished-rice steaming method according to Example 1. Each sample is used at a concentration of 10 ppm. Hydroquinone is used as a positive control. Then, the culture medium is removed and the cells are washed with phosphate buffered saline (PBS). The cells are subjected to cell lysis using 1N sodium hydroxide and absorbance is determined at 400 nm. The absorbance measurement is used to calculate % inhibition of melanin production according to the following Mathematical Formula 1. The results are shown in the following Table 1 (Dooley's method). % Inhibition of melanin production=100−{(absorbance of each sample/absorbance of control)×100} [Mathematical Formula 1]

skin = assay: Irritation test on panels sensitive to irritation; type: in vivo
Text: Particularly, 15 panels sensitive to irritation, such as stinging, burning, etc., are subjected to a test for determining irritation feeling, including stinging, itch and dazzling. […] The results are shown in the following Table 2. <Evaluation Criteria> 0-0.4: No irritation 0.5-1.0: slight irritation 1.1-2.0: mild irritation 2.1-3.0: severe irritation

[2] = grade 0 to 3.0, 0.5 mL applied onto skin, 15 panels, 0-0.4 no, 0.5-1.0 slight, 1.1-2.0 mild, 2.1-3.0 severe irritation

Compound | inhibition at 10 ppm [1] [%] | Average (skin; average of stinging and burning grades, grade 0 to 3.0, 0-0.4 no, 0.5-1.0 slight irritation) | Burning (skin; [2]) | Stinging (skin; [2]) | irritation (in words) (skin; summary of Table 2, 0.5 mL applied onto skin)
Oc1ccc(O)cc1 [Hydroquinone, hydroquinone] | 58.9 |  |  |  | 
O=c1cc(CO)occ1O [Kojic acid, kojic acid] |  | 0.68 | 0.50 | 0.85 | perceptible degree of irritation
